The values below come from patent publication US20240246934A1, “QUINAZOLINE-BASED COMPOUND, COMPOSITION, AND APPLICATION OF QUINAZOLINE-BASED COMPOUND” (BEIJING SCITECH-MQ PHARMACEUTICALS LIMITED, priority 2021, published 2024).

For orientation: IC50 means the concentration that gives 50% inhibition.

One experiment has as its target T1, HER2 kinase (Homo sapiens, UniProt P04626).
T1 construct: purchased Carna Biosciences 08-016
Briefly: HER2 kinase assay (ULight/PT66 TR-FRET). Format: biochemical. The procedure, abridged: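 HER2 kinase preincubated 5 min with compounds (11-point 3-fold series, duplicates), then reacted 120 min at room temperature with ATP and ULight-poly GT peptide, each prepared at 4× working concentration (40 μM ATP, 400 nM substrate, 40 nM kinase). PT66 antibody added for 60 min, TR-FRET read; IC50 from inhibition curves.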
For orientation: TR-FRET usually uses a lanthanide donor and a delayed reading to cut background.

The target of another experiment is EGFR^WT kinase (Homo sapiens, UniProt P00533). As to the kind of experiment: EGFR^WT kinase assay (ULight/PT66 TR-FRET). Format: biochemical. A digest of the protocol: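 Enzyme preincubated 5 min with compound (11-point 3-fold series, duplicate), then ULight-JAK-1 (Tyr1023) peptide and ATP added at 4× stocks of 400 nM and 600 μM; 120 min reaction at room temperature. PT66 antibody TR-FRET read after 60 min; IC50 fitted from inhibition rates.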

The subject of a further experiment is NCI-N87 cells. Briefly: Inhibition of cell proliferation, CTG method, NCI-N87. Format: cell-based. The settings on record: Homo sapiens, 72 hours, read-out: hNCI-N87 IC50. The text has this:
(§1) The present application examined the in vitro anti-proliferative activity of the compounds of the present disclosure against in vitro cultured BT474, NCI-N87, Ba/F3-EGFR-VIII and Ba/F3 HER2 A775_G776insYVMA and Ba/F3 EGFR D770_N771insSVD cell lines by CTG method.
(§2) Reagents and consumables: RPMI1640 (ThermoFisher, Cat. No. C11875500BT); fetal bovine serum (Hyclone, Cat. No. SV30087.03); 0.25% trypsin-EDTA (ThermoFisher, Cat. No. 25200-072); penicillin-streptomycin (Hyclone, Cat. No. SV30010); DMSO (Amresco, Cat. No. 0231-500ML); CTG assay kit (Promega, Cat. No. G924C); 96-well plate (Corning, Cat. No. 3603); multifunctional plate reader (Perkin Elmer, Cat. No. Envision)
(§3) Cell lines: BT474 (from the cell bank of Chinese Academy of Sciences), NCI-N87 (from ATCC), Ba/F3-EGFR-VIII, Ba/F3 HER2 A775_G776insYVMA and Ba/F3 EGFR D770_N771insSVD (all from KYinno Biotechnology (Beijing) Co., Ltd.); all of the above cells were cultured with RPMI1640 medium containing 10% fetal bovine serum, 100 U/mL penicillin, and 100 μg/mL streptomycin in the culture process.
(§4) 1. The assay compound was dissolved with DMSO to form a stock solution and a gradient dilution was performed, followed by dilution with the corresponding medium to obtain a solution with 5-fold working concentration.
(§5) 2. Cells in logarithmic growth phase were adjusted to specific cell densities by dilution with culture medium, and 80 μL of cell suspension was added to a 96-well plate, such that plating densities of cells of BT474, NCI-N87, Ba/F3-EGFR-VIII, Ba/F3 HER2 A775_G776insYVMA and Ba/F3 EGFR D770_N771insSVD were all 3000 cells/well. The cells of Ba/F3-EGFR-VIII, Ba/F3 HER2 A775_G776insYVMA and Ba/F3 EGFR D770_N771insSVD were used directly in the next step (treatment with compound), whereas the BT474 and NCI-N87 needed to be cultured overnight in a 37° C., 5% carbon dioxide gas incubator to adhere to the wall, and then treated with compounds.
(§6) 3. 20 μL of compound solution was added to each well of the 96-well plate that had been inoculated with cells. The highest concentration of the assayed compound was 10 μM, 4-fold serial dilution, a total of 9 concentrations, and duplicate wells. A control group without compound was also set up.
(§7) 4. The cells were cultured for another 72 hours, and then cell viability was detected by CTG assay kit. Signal values were read with a multifunctional plate reader (Perkin Elmer). GraphPad Prism software was used to create a dose-response curve and IC50 was calculated.

The target of experiment [1] is Ba/F3 HER2 A775_G776insYVMA cells (Homo sapiens, UniProt P04626, DUP772-775, cells depend on it). Briefly: Inhibition of cell proliferation, CTG method, Ba/F3 HER2 A775_G776insYVMA. It counts as cell-based. The settings on record: 72 hours, read-out: Ba/F3 HER2 A775-G776insYVMA IC50. A digest of the protocol: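 Ba/F3 HER2 A775_G776insYVMA cells in RPMI1640 with 10% FBS were plated at 3000 cells/well and treated directly with compound (top 10 μM, 4-fold, 9 concentrations, duplicates).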

The target in a further experiment is Ba/F3-EGFR-VIII cells (Homo sapiens, UniProt P00533, DELINS30-297G, cells depend on it). Briefly: Inhibition of cell proliferation, CTG method, Ba/F3-EGFR-VIII. It counts as cell-based. Particulars: 72 hours, read-out: Ba/F3 EGFRvIII IC50.
From the text: as §1, §2, §3
1. […]
as §7

For experiment [2], the target named is Ba/F3 EGFR D770_N771insSVD cells (Homo sapiens, UniProt P00533, DUP768-770, cells depend on it). Briefly: Inhibition of cell proliferation, CTG method, Ba/F3 EGFR D770_N771insSVD. Format: cell-based. Particulars: 72 hours, read-out: Ba/F3 EGFR D770_N771insSVD IC50.
From the text: as §1, §2, §3, §4, §5, §6, §7

For another experiment, the system named is BT474 cells. As to the kind of experiment: Inhibition of cell proliferation, CTG method, BT474. Format: cell-based. Particulars: Homo sapiens, BT-474, 72 hours, read-out: hBT474 IC50.
From the text: as §1, §2, §3
1. […]
as §7

Experiment [3] relates to Ba/F3 ERBB2 A775_G776insYVMA. As to the kind of experiment: Efficacy in nude mouse tumor-bearing model of Ba/F3 ERBB2 A775_G776insYVMA. Format: in vivo, BALB/c nude mice. Particulars: 30 mg/kg, QD×15, PO; day 15. As to the method:
In this assay, some compounds of the application were orally administered to a nude mouse tumor-bearing model of Ba/F3 ERBB2 A775_G776insYVMA to study the effect of the compounds of the application on tumor growth.
Preparation of the assay compound: an appropriate weight of the compound to be assayed was weighed, and completely dissolved in an appropriate volume of vehicle (DMSO). The mixture was vortexed or sonicated. Then an appropriate amount of Solutol was added and mixed well. Finally, sterilized drinking water was added and the mixture was mixed by stirring or vortexing to obtain a homogeneous solution or suspension.
Method: All the assays were authorized and agreed by the Animal Welfare Committee. Ba/F3 ERBB2 A775_G776insYVMA in a logarithmic growth period was inoculated subcutaneously into the right back of immunodeficient nude mice (BALB/c nude, female, 6-7 weeks of age, body weight 18±2 g) with 4×10^6 cells/rat. After the tumor grew to 150-200 mm^3, the animals were randomly divided into a treatment group and a control group. For the treatment group, a solution of each assay compound was given, and for the control group, a vehicle solution without the assay compound was given. Both of the treatment group and the control group were administered once a day for about 2 weeks. The dose of each assay article was 30 mg/kg (in terms of effective compound concentration), and the assay compounds were all prepared freshly for use. During the assay, the diameter of loaded tumors was measured twice a week, and the mice were weighed at the same time. The tumor volume (TV) was calculated by the formula: TV=½×a×b^2, where a and b denote length and width, respectively. Relative tumor volume (RTV) was calculated based on the measured results by the formula: RTV=Vt/V0, where V0 is the tumor volume measured at grouping and administration and Vt is the tumor volume at each measurement. The evaluation index of antitumor activity was the relative tumor proliferation rate T/C (%) calculated by the formula: T/C (%)=(TRTV/CRTV)×100%, TRTV: RTV of the administration group; CRTV: RTV of the control group. T and C denote the average tumor volume at a certain time point in the administration group and the control group, respectively.

A value given as a limit tells only on which side of the number the result lay.

Ba/F3 HER2 A775_G776insYVMA cells, sequence (P04626 with tags, fused parts or gaps DUP772-775): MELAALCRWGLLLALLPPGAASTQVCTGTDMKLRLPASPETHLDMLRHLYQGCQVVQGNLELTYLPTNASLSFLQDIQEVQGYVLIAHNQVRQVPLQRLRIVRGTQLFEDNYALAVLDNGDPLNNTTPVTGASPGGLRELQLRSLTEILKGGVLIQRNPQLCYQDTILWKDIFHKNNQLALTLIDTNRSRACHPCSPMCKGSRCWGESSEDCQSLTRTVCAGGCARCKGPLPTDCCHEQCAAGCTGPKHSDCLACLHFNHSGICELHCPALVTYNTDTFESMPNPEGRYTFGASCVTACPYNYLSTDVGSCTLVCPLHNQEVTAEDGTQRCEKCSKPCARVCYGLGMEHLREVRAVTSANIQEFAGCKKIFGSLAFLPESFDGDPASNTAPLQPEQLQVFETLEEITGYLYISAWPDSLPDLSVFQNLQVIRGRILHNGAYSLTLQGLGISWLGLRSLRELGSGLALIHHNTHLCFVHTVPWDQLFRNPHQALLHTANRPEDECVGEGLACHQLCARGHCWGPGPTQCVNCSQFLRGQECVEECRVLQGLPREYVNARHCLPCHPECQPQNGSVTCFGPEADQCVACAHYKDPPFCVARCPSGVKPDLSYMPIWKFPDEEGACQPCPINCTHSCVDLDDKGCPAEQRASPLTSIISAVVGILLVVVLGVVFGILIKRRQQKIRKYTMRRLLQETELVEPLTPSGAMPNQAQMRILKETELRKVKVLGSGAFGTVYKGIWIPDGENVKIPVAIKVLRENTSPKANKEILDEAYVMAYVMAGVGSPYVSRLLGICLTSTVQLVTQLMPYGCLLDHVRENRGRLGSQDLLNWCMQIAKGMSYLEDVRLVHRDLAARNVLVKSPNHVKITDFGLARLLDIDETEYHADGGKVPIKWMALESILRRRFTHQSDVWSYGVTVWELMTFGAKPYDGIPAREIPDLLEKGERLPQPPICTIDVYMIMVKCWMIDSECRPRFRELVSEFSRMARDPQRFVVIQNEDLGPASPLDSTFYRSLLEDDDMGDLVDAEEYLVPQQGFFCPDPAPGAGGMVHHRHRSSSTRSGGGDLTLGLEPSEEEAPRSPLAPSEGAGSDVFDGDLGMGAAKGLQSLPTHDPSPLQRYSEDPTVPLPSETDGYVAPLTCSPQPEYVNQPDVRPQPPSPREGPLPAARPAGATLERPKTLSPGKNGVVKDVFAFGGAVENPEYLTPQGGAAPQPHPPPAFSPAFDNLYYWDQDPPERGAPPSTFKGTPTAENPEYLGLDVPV
T1 sequence (P04626 23-1255): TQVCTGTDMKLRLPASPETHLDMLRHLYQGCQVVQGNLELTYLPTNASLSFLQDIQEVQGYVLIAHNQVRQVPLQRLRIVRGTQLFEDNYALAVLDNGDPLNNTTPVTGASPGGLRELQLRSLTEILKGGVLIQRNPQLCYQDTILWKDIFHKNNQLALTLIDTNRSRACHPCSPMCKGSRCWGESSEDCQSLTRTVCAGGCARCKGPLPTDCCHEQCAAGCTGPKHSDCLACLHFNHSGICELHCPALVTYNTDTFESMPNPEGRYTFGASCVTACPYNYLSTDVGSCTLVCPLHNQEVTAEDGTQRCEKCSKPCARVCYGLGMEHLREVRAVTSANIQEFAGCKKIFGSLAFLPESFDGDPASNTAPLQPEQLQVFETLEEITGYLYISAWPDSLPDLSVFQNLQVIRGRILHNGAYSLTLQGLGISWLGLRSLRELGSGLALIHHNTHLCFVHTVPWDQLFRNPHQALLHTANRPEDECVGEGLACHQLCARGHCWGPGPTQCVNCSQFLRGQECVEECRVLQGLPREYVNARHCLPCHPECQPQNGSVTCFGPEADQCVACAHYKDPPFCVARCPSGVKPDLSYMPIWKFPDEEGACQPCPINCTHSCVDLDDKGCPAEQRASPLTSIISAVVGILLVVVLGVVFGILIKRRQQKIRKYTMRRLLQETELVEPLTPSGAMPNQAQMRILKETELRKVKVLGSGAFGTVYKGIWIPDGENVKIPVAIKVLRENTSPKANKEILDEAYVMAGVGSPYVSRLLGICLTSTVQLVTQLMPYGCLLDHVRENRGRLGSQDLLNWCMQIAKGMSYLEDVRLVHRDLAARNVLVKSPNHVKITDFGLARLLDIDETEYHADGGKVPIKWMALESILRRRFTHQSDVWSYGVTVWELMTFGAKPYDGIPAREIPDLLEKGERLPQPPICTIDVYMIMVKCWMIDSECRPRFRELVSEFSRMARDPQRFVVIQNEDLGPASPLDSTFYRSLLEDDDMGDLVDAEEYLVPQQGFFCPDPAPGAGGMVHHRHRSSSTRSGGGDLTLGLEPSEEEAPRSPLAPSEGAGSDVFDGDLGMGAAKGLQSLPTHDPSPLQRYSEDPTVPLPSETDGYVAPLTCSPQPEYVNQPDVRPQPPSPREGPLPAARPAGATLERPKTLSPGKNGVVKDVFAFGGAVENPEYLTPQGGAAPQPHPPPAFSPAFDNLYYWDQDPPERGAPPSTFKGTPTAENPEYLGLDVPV
EGFR^WT kinase, sequence (P00533 25-1210): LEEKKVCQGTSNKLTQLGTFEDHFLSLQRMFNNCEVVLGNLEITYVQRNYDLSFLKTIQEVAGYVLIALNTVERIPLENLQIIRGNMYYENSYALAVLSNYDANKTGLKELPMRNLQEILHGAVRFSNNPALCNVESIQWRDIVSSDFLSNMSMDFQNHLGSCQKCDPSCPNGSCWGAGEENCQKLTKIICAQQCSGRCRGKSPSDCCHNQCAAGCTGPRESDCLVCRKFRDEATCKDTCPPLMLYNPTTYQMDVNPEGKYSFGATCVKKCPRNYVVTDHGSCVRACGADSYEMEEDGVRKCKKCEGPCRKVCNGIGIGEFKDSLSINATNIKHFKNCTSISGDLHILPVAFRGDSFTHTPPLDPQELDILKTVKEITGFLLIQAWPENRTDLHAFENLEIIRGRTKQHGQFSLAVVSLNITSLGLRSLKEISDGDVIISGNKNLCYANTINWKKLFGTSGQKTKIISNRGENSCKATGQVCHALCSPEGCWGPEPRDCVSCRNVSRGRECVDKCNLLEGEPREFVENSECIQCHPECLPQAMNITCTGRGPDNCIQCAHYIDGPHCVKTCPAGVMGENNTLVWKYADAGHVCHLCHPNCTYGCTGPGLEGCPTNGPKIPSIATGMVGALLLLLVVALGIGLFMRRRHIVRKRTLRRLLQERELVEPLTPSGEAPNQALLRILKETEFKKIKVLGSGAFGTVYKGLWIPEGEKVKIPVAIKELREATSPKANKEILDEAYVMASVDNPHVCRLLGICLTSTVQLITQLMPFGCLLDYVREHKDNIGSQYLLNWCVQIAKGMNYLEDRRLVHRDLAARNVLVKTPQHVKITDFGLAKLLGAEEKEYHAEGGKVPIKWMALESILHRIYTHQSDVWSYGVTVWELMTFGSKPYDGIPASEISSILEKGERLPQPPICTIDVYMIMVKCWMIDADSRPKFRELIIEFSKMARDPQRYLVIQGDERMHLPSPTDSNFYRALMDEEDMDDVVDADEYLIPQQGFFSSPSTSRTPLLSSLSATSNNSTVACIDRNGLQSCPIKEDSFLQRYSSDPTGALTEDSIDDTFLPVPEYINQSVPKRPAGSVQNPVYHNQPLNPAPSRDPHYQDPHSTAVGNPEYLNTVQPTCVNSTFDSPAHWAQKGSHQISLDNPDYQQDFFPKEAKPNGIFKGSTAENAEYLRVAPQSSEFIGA
Ba/F3 EGFR D770_N771insSVD cells, sequence (P00533 with tags, fused parts or gaps DUP768-770): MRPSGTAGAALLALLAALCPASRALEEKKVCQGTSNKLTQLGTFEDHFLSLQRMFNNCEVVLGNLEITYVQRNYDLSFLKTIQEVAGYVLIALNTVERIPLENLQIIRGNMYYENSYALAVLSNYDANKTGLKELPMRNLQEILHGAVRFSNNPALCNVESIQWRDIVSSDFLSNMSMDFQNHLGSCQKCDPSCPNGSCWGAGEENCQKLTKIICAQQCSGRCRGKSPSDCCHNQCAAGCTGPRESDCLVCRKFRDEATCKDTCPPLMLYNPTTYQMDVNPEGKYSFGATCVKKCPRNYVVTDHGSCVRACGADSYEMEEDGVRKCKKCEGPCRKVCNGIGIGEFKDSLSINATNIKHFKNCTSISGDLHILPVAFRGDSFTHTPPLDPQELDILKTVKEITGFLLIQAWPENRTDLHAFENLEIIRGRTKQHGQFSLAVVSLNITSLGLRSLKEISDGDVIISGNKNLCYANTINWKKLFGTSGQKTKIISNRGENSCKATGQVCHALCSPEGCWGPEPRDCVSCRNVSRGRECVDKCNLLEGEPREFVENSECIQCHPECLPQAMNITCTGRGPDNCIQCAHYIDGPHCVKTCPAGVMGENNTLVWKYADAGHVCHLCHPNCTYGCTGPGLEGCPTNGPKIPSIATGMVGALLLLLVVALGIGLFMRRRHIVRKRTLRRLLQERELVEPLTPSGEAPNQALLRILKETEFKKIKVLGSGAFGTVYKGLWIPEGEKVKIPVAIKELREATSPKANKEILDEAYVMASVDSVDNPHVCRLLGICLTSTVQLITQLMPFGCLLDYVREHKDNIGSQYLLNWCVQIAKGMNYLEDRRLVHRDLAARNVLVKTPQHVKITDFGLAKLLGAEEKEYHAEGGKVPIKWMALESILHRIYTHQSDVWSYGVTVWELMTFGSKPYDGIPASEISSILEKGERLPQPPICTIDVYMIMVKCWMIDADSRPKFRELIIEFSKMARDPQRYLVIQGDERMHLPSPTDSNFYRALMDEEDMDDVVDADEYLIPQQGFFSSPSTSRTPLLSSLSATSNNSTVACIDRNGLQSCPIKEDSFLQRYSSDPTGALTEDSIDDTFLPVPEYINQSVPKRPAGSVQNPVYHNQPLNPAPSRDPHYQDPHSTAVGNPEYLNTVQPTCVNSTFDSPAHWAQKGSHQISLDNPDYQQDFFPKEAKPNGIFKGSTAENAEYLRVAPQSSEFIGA

In the case of `COc1c(NC(=O)/C=C/CN(C)C)ccc2ncnc(Nc3ccc(OCc4ccccn4)c(Cl)c3)c12` [Example 1, (E)-N-(4-((3-chloro-4-(pyridin-2-ylmethoxy)phenyl)amino)-5-methoxyquinazolin-6-yl)-4-(dimethylamino)but-2-enamide], the half-inhibitory concentration (IC50) on HER2 kinase was less than 0.01 µM; against EGFR^WT kinase it was less than 0.01 µM; with NCI-N87 cells it was 0.001 to 0.005 µM. For the same molecule, the GI50 (in experiment [1]; at Ba/F3-EGFR-VIII cells) was 0.001 to 0.005 µM in each case.
For the molecule `CN1CCC[C@@H]1/C=C/C(=O)Nc1ccc2ncnc(Nc3ccc(OCc4ccccn4)c(Cl)c3)c2c1OCCCO` [Example 17, (R,E)-N-(4-((3-chloro-4-(pyridin-2-ylmethoxy)phenyl)amino)-5-(3-hydroxypropoxy)quinazolin-6-yl)-3-(1-methylpyrrolidin-2-yl)acrylamide], the IC50 on HER2 kinase and on EGFR^WT kinase was less than 0.01 µM in each case. The GI50 in experiment [1] fell in the range of 0.001 to 0.005 µM; in experiment [2], 0.01 to 0.1 µM.
As to `CN1CCC[C@@H]1/C=C/C(=O)Nc1ccc2ncnc(Nc3ccc(OCc4ccccn4)c(Cl)c3)c2c1OCC(C)(C)O` [Example 15, (R,E)-N-(4-((3-chloro-4-(pyridin-2-ylmethoxy)phenyl)amino)-5-(2-hydroxy-2-methylpropoxy)quinazolin-6-yl)-3-(1-methylpyrrolidin-2-yl)acrylamide], the IC50 against HER2 kinase and on EGFR^WT kinase was less than 0.01 µM in each case. In addition, the GI50 in experiment [1] was in the range of 0.001 to 0.005 µM; in experiment [2] it was 0.01 to 0.1 µM.
For `CN1CCC[C@@H]1/C=C/C(=O)Nc1ccc2ncnc(Nc3ccc(OCc4ccccn4)c(Cl)c3)c2c1OCCCF` [Example 10, (R,E)-N-(4-((3-chloro-4-(pyridin-2-ylmethoxy)phenyl)amino)-5-(3-fluoropropoxy)quinazolin-6-yl)-3-(1-methylpyrrolidin-2-yl)acrylamide], the IC50 at HER2 kinase and against EGFR^WT kinase was less than 0.01 µM throughout. Also, the GI50 in experiment [1] is 0.001 to 0.005 µM; in experiment [2], 0.01 to 0.1 µM.
Regarding `CCN1CCC[C@@H]1/C=C/C(=O)Nc1ccc2ncnc(Nc3ccc(OCc4cccc(F)c4)c(Cl)c3)c2c1OC` [Example 28, (R,E)-N-(4-((3-chloro-4-(3-fluorobenzyloxy)phenyl)amino)-5-methoxyquinazolin-6-yl)-3-(1-ethylpyrrolidin-2-yl)acrylamide], the IC50 on HER2 kinase and on EGFR^WT kinase was less than 0.01 µM each time. For the same molecule, the GI50 in experiment [1] lay in the range of 0.001 to 0.005 µM; in experiment [2], 0.01 to 0.1 µM.
In the case of `CCOc1c(NC(=O)/C=C/[C@H]2CCCN2C)ccc2ncnc(Nc3ccc(OCc4ccccn4)c(Cl)c3)c12` [Example 5, (R,E)-N-(4-((3-chloro-4-(pyridin-2-ylmethoxy)phenyl)amino)-5-ethoxyquinazolin-6-yl)-3-(1-methylpyrrolidin-2-yl)acrylamide], the IC50 at HER2 kinase is less than 0.01 µM; at EGFR^WT kinase, 0.01 to 0.1 µM; with BT474 cells, 0.01 to 0.1 µM; with NCI-N87 cells, 0.001 to 0.005 µM. In experiment [1], the GI50 is less than 0.001 µM.
Take `COc1c(NC(=O)/C=C/CN(C)C)ccc2ncnc(Nc3ccc(OCc4cccc(F)c4)c(Cl)c3)c12` [Example 2, (E)-N-(4-((3-chloro-4-(3-fluorobenzyloxy)phenyl)amino)-5-methoxyquinazolin-6-yl)-4-(dimethylamino)but-2-enamide]: the IC50 against HER2 kinase was less than 0.01 µM; at EGFR^WT kinase, less than 0.01 µM; with NCI-N87 cells, 0.001 to 0.005 µM. In addition, the GI50 in experiment [1] is 0.001 to 0.005 µM; in experiment [2], 0.01 to 0.1 µM.
With `COCCOc1c(NC(=O)/C=C/[C@H]2CCCN2C)ccc2ncnc(Nc3ccc(OCc4ccccn4)c(Cl)c3)c12` [Example 8, (R,E)-N-(4-((3-chloro-4-(pyridin-2-ylmethoxy)phenyl)amino)-5-(2-methoxyethoxy)quinazolin-6-yl)-3-(1-methylpyrrolidin-2-yl)acrylamide], the half-inhibitory concentration (IC50) at HER2 kinase and on EGFR^WT kinase was less than 0.01 µM each time. Besides, the values for the GI50 in experiment [1] and in experiment [2] were 0.001 to 0.005 µM and 0.01 to 0.1 µM, respectively. The “T/C (%)” value in experiment [3] came to 5.83%.
For the molecule `COCCN1CCC[C@@H]1/C=C/C(=O)Nc1ccc2ncnc(Nc3ccc(OCc4cccc(F)c4)c(Cl)c3)c2c1OC` [Example 26], the half-maximal inhibitory concentration (IC50) was less than 0.01 µM against HER2 kinase and 0.01 to 0.1 µM against EGFR^WT kinase. For the same molecule, the GI50 in experiment [1] was in the range of 0.001 to 0.005 µM; in experiment [2], 0.01 to 0.1 µM.
For `CN1CCC[C@@H]1/C=C/C(=O)Nc1ccc2ncnc(Nc3ccc(OCc4ccccn4)c(Cl)c3)c2c1OCCO` [Example 6, (R,E)-N-(4-((3-chloro-4-(pyridin-2-ylmethoxy)phenyl)amino)-5-(2-hydroxyethoxy)quinazolin-6-yl)-3-(1-methylpyrrolidin-2-yl)acrylamide], the half-maximal inhibitory concentration (IC50) against HER2 kinase and at EGFR^WT kinase was less than 0.01 µM each time. For the same molecule, the GI50 fell in the range of 0.001 to 0.005 µM in experiment [1] and 0.005 to 0.01 µM in experiment [2].
